Results published in US20240067693A1, “POLYPEPTIDES AND USES THEREOF” (MEDIMMUNE LIMITED, priority 2020, published 2024).
Numbered stars: 1 amine (or outer) side, 2 acyl side, 3 side chain; on linkers, the order of the positions; unused ones are H or OH. Bridge positions count the residues as written; N and C are the ends. Square brackets hold non-standard residues; d marks the D form. Side chains are listed from the residue outwards. Peptide text beside a SMILES is read from it. * marks the point of attachment. C20 diacid = O=C(O)CCCCCCCCCCCCCCCCCCC(=O)*; C18 diacid = O=C(O)CCCCCCCCCCCCCCCCC(=O)*; γGlu = O=C(O)[C@H](CCC(=O)[*:2])N[*:1]; Aib = CC(C)(N)C(=O)O

Legend:
[1] = biological target: T1, human amylin receptor (calcitonin receptor co-expressed with receptor activity modifying protein, RAMP3) (hAMYR3) (Homo sapiens, UniProt O60896+P30988); assay: cAMP production in 1321N1 cells with stable recombinant expression of human amylin receptor (hAMYR3); format: cell-based; details: for Ratio (selectivity hAMYR vs hCTR, ratio of EC50 values at the two receptors): EC50 hCTR / EC50 hAMYR3; for EC50: cAMP, 1321N1 cells, assay buffer with 0.1% BSA, read-out: EC50 (pM) hAMYR3
T1 construct: expressed in transfected cells
T1 sequence (P30988 25-474): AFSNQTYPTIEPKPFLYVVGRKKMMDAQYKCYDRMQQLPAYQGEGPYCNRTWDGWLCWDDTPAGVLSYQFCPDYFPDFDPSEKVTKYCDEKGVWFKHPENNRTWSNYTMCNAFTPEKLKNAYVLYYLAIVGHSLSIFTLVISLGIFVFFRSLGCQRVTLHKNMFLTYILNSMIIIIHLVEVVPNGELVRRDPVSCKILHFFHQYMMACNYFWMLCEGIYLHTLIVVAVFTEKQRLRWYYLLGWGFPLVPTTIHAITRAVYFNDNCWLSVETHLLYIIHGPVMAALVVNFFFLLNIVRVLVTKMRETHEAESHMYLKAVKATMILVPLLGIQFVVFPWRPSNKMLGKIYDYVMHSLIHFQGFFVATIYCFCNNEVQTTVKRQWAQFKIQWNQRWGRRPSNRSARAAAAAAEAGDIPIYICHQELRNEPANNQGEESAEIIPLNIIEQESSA
T1 sequence (O60896 24-148 partner): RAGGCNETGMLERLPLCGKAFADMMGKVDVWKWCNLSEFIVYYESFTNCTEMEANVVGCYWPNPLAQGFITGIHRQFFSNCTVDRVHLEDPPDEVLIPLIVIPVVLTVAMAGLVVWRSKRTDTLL
In short: (§1)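 EC50 values come from 4-parameter logistic fits of HTRF cAMP signal, normalised to maximal calcitonin or amylin effect. Peptides were tested in duplicate for 30 min at RT in IBMX-containing (0.5 mM) BSA/HEPES buffer pH 7.4 on stable 1321N1 (human CTR, AMYR3) or HEK (rat CTR, AMYR3) lines.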

[2] = biological target: T2, human calcitonin receptor (hCTR) (Homo sapiens, UniProt P30988); assay: cAMP production in 1321N1 cells with stable recombinant expression of human calcitonin receptor (hCTR); format: cell-based; details: cAMP, 1321N1 cells, assay buffer with 0.1% BSA; read-out: EC50 (pM) hCTR
T2 construct: expressed in transfected cells
T2 sequence (P30988 25-474): T1 sequence (P30988 25-474)
In short: as §1

[3] = biological target: T3, rat amylin receptor (calcitonin receptor co-expressed with receptor activity modifying protein, RAMP3) (Rat AMYR3) (Rattus norvegicus, UniProt P32214+Q9JJ73); assay: cAMP production in HEK cells with stable recombinant expression of rat amylin receptor (Rat AMYR3); format: cell-based; details: assay buffer with 0.1% BSA
T3 construct: expressed in transfected cells
T3 sequence (P32214 25-516): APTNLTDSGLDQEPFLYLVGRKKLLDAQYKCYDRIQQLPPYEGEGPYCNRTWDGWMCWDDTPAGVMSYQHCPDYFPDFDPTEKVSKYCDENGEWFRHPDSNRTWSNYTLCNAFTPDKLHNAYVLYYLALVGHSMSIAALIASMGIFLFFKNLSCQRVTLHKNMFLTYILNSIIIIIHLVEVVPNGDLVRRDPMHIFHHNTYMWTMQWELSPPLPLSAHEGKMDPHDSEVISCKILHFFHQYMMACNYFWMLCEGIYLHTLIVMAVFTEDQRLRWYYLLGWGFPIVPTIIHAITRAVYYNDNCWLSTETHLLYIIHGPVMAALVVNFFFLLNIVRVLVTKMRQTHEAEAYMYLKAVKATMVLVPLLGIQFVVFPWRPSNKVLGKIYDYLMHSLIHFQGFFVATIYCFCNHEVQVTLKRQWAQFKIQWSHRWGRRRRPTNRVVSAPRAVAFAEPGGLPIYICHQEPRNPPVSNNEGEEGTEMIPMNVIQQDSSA
T3 sequence (Q9JJ73 23-147 partner): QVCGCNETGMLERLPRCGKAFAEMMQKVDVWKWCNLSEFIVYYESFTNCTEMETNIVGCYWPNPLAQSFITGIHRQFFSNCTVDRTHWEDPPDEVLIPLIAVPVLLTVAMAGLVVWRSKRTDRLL
Protocol: (§2) The functional activities of lipidated pramlintide analogue peptides, such as cAMP production, were tested in 1321N1 cell line with stable recombinant expression of human calcitonin receptor (hCTR) or human amylin receptor (calcitonin receptor co-expressed with receptor activity modifying protein, RAMP3) (hAMYR3) or HEK cells with stable recombinant expression of rat calcitonin receptor (rat CTR) or rat amylin receptor (calcitonin receptor co-expressed with receptor activity modifying protein, RAMP3) (Rat AMYR3).
(§3) Cryopreserved cell stock was thawed rapidly in a water-bath, suspended in assay buffer (0.1% BSA (Sigma # A3059) in HBSS (Sigma # H8264) with 25 mM HEPES, pH 7.4 and containing 0.5 mM IB MX (Sigma# 17018)) and spun at 240×g for 5 minutes. Cells were re-suspended in assay buffer at a batch-dependent optimized concentration (e.g. hCTR cells at 0.125×10^5 cells/mL, hAMYR3 cells at 0.125×10^5 cells/mL, rat CTR cells at 1x10^5 cells/mL, rat AMYR3 at 2×10^5 cells/mL).
(§4) The test peptide stock was prepared in DMSO and diluted in assay buffer to reach stated concentrations and transferred in duplicates into a 384-black shallow well microtitre assay plate (Corning # 3676). Cells were added to the assay plate, incubated at room temperature for 30 minutes and the cAMP level measured using cAMP dynamic 2 HTRF kit (Cisbio, Cat # 62AM4PEJ), following the two step protocol as per manufacturer's recommendations. The plates were read on an Envision (Perkin Elmer) using excitation wavelength of 320 nm and emission wavelengths of 620nm & 665 nm.
(§5) Data was transformed to % Delta F as described in the manufacturer's guidelines and analyzed as percent activation of maximal amylin or calcitonin effect by 4-parameter logistic fit to determine EC50 values. The selectivity of a peptide to hAMYR vs hCTR is defined as a ratio of EC50 values at the two receptors.

[4] = biological target: T4, rat calcitonin receptor (rat CTR) (Rattus norvegicus, UniProt P32214); assay: cAMP production in HEK cells with stable recombinant expression of rat calcitonin receptor (rat CTR); format: cell-based; details: assay buffer with 0.1% BSA
T4 construct: expressed in transfected cells
T4 sequence (P32214 25-516): T3 sequence (P32214 25-516)
Protocol: as §2, §3, §4, §5

[5] = test system: lean rats; assay: Rat acute food intake study; format: in vivo; details: lean male Sprague Dawley rats, 20 nmol/kg subcutaneously
Protocol: Male Sprague Dawley rats were obtained from Taconic Denmark, ApS at approximately 7 weeks of age. Rats were implanted with a microchip for identification, housed 4/cage with enrichment, free access to food and water, and allowed one week acclimatisation while non-invasive characterization was performed. Rats were on a 12:12 light:dark cycle that switches at 1pm:1am. Food intake was monitored via the HM2 system (Lafayette Instrument) that allows for monitoring in a home cage. As each rat enters an access tunnel to feed, an IR beam is broken, and the implanted microchip is read. Resulting changes to food weight is then assigned to the specific animal. Social order has shown no impact to overall feeding patterns and amounts.
Rats were sorted into groups based on Day -1 body weight and 24-hour accumulated food intake (n=7 per group). On Day 0 rats were weighed, then fasted for 6 hours. Thirty (30) minutes prior to the reintroduction of food, rats were dosed subcutaneously (5 mL/kg) with 20 nmol/kg of test compound or 60 nmol/kg peptide 1 (pramlintide) diluted in an appropriate vehicle, after which food was returned, and lights went out. Automated food intake was monitored for the following 3 days, and rats were weighed once per day.
Food intake per rat was batched into 1-hour intervals and integrated into Gubra's GubraView data management system. Discrete food intake data was exported into MS Excel from which cumulative food intake data was generated. Cumulative food intake data was then transposed into GraphPad Prism (v8.0.1) for analysis of dark period feeding

[6] = in vivo; details: male, Sprague-Dawley, rat, 20 nmol/kg
Protocol: PK studies were performed to determine the half-life (T1/2) of test peptides. T1/2 describes the time taken for the maximum plasma concentration (Cmax) of a test substance to halve its steady-state concentration when in circulation.
Male SD rats were purchased from Si Bei Fu Laboratory Animal Technology Co. Ltd (China). The animals were 6-8 weeks old with body weights of 200-300 g on the dosing date. The animals were housed in a 12-hour light/12-hour dark cycle environment and were fasted overnight before dosing. The body weight of the animals were recorded before dosing, 24 h and 48 h post dosing . Animals had free access to food and drinks, and the food consumption was quantified every day.
Test articles were administered at 20 nmol/kg. Blood samples were collected from each animal via Jugular vein.
The blood samples were transferred into eppendorf low binding tube containing K2 EDTA. Above 0.150 mL blood were collected at each time point. Blood samples were centrifuged at 4,000 g for 5 minutes at 4° C. to obtain plasma. The plasma samples were stored frozen at −75±15° C. until analysis.
Concentrations of the test articles in the plasma samples were analyzed using a LC-MS/MS method. Data acquisition was performed by LabSolution version 5.89 software (Shimadzu, Kyoto, Japan). Data statistics were performed using Excel 97-2003 software. The pharmacokinetic parameters of test articles were calculated using a non-compartmental approach with Phoenix™ VVinNonlin® 6.1.
The following pharmacokinetic parameters were calculated, whenever possible from the plasma concentration versus time data: • IV administration: T1/2, C0, AUClast, AUCinf, MRTinf, Cl, Vss, Number of Points for Regression. • SC administration: Tmax, Cmax, AUClast, AUCinf, MRTinf, F, Number of Points for Regression.

| Ratio (selectivity hAMYR vs hCTR, ratio of EC50 values at the two receptors) [1] | EC50 [1] [pM] | EC50 [2] [pM] | EC50 [3] [pM] | EC50 [4] [pM] | half-life ([6]; iv) [h] | half-life ([6]; sc) [h] | SMILES | Cummulative food intake (% vehicle treated intake) At 12 h [5] [% vehicle treated intake] | Cummulative food intake (% vehicle treated intake) At 24 h [5] [% vehicle treated intake] | Cummulative food intake (% vehicle treated intake) At 48 h [5] [% vehicle treated intake] |
| --- | --- | --- | --- | --- | --- | --- | --- | --- | --- | --- |
| 55 | 259 | 14200 | 5.9 | 514 | 5.4 | 8.1 | CC[C@H](C)[C@H](NC(=O)[C@@H]1CCCN1C(=O)CNC(=O)[C@H](Cc1ccccc1)NC(=O)[C@H](CC(N)=O)NC(=O)C(C)(C)NC(=O)[C@H](CO)NC(=O)[C@H](CO)NC(=O)[C@H](Cc1c[nH]cn1)NC(=O)[C@@H](NC(=O)[C@H](CC(C)C)NC(=O)[C@H](Cc1ccccc1)NC(=O)[C@H](CC(N)=O)NC(=O)[C@H](C)NC(=O)[C@H](CC(C)C)NC(=O)[C@H](CCCNC(=N)N)NC(=O)[C@H](CCC(N)=O)NC(=O)[C@@H](NC(=O)[C@H](C)NC(=O)[C@@H]1CSSC[C@H](NC(=O)[C@H](CCCCN)NC(=O)[C@@H](N)CCCCNC(=O)CC[C@H](NC(=O)CCCCCCCCCCCCCCCCC(=O)O)C(=O)O)C(=O)N[C@@H](CC(N)=O)C(=O)N[C@@H]([C@@H](C)O)C(=O)N[C@@H](C)C(=O)N[C@@H]([C@@H](C)O)C(=O)N1)[C@@H](C)O)C(C)C)C(=O)N[C@@H](CC(C)C)C(=O)N1CCC[C@H]1C(=O)N1CCC[C@H]1C(=O)N[C@H](C(=O)N[C@@H](CC(N)=O)C(=O)N[C@H](C(=O)NCC(=O)N[C@@H](CO)C(=O)N[C@@H](CC(N)=O)C(=O)N[C@H](C(=O)N[C@@H](Cc1ccc(O)cc1)C(N)=O)[C@@H](C)O)C(C)C)[C@@H](C)O [Peptide 35, K(γE-C18diacid)K[CNTATC]ATQRLANFLVHSS(Aib)NFGPILPPTNVGSNTY-amide] (H-K([γGlu-C18 diacid])KCNTATCATQRLANFLVHSS[Aib]NFGPILPPTNVGSNTY-NH2; disulfide 3-8; N-terminus assumed) | 49.8 | 44.8 | 72 |
| 8 | 1210 | 9560 | 23.7 | 9050 |  |  | CC[C@H](C)[C@H](NC(=O)[C@@H]1CCCN1C(=O)CNC(=O)[C@H](Cc1ccccc1)NC(=O)[C@H](CC(N)=O)NC(=O)[C@H](CC(N)=O)NC(=O)[C@H](CO)NC(=O)[C@H](CO)NC(=O)[C@H](Cc1c[nH]cn1)NC(=O)[C@H](CCCNC(=N)N)NC(=O)[C@H](CC(C)C)NC(=O)[C@H](Cc1ccccc1)NC(=O)[C@H](CCC(=O)O)NC(=O)[C@H](C)NC(=O)[C@H](CC(C)C)NC(=O)[C@H](CCCNC(=N)N)NC(=O)[C@H](CCC(N)=O)NC(=O)[C@@H](NC(=O)[C@H](C)NC(=O)[C@@H]1CSSC[C@H](NC(=O)[C@@H](N)CCCCNC(=O)CC[C@H](NC(=O)CC[C@H](NC(=O)CCCCCCCCCCCCCCCCCCC(=O)O)C(=O)O)C(=O)O)C(=O)N[C@@H](CC(N)=O)C(=O)N[C@@H]([C@@H](C)O)C(=O)N[C@@H](C)C(=O)N[C@@H]([C@@H](C)O)C(=O)N1)[C@@H](C)O)C(=O)N[C@@H](CC(C)C)C(=O)N1CCC[C@H]1C(=O)N1CCC[C@H]1C(=O)N[C@H](C(=O)N[C@@H](CC(N)=O)C(=O)N[C@H](C(=O)NCC(=O)N[C@@H](CO)C(=O)N[C@@H](CC(N)=O)C(=O)N[C@H](C(=O)N[C@@H](Cc1ccc(O)cc1)C(N)=O)[C@@H](C)O)C(C)C)[C@@H](C)O [Peptide 116] (H-K([γGlu-γGlu-C20 diacid])CNTATCATQRLAEFLRHSSNNFGPILPPTNVGSNTY-NH2; disulfide 2-7) | 51.7 | 43.1 | 50.2 |
